Earlier results on one compound are cited in US10406114B2, “Antibiotic-loaded transdermal patch” (priority 2017, dated 2019).

For this data set, the system named is Staphylococcus aureus.

As to `CC1=C(C(=O)O)N2C(=O)[C@@H](NC(=O)[C@H](N)c3ccccc3)[C@H]2SC1` [cephalexin], the MIC result is “about 8 μg/ml”.
